Assay results reported in PubChem BioAssay (NCI).
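These data come from cells grown in 96-well plates and exposed to compound for 48 hours at five concentrations. GI50: concentration for 50% inhibition of growth. TGI: concentration producing complete growth inhibition.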

Experiments:
Test in all cases: NCI anticancer screen, dose series, 48 h
U251 CNS = test system: U251 CNS
SK-MEL-28 melanoma = test system: SK-MEL-28 melanoma
SF-539 CNS = test system: SF-539 CNS
XF 498 CNS = test system: XF 498 CNS
786-0 renal = test system: 786-0 renal
OVCAR-5 ovarian = test system: OVCAR-5 ovarian
CCRF-CEM leukemia = test system: CCRF-CEM leukemia
DMS 273 small cell lung = test system: DMS 273 small cell lung
T-47D breast = test system: T-47D breast
SR leukemia = test system: SR leukemia

Compound | TGI (U251 CNS) | TGI (SK-MEL-28 melanoma) | TGI (SF-539 CNS) | TGI (XF 498 CNS) | TGI (786-0 renal) | TGI (OVCAR-5 ovarian) | TGI (CCRF-CEM leukemia) | TGI (DMS 273 small cell lung) | GI50 (U251 CNS) | GI50 (T-47D breast) | TGI (T-47D breast) | GI50 (SK-MEL-28 melanoma) | GI50 (SR leukemia) | TGI (SR leukemia) | GI50 (SF-539 CNS) | GI50 (786-0 renal) | GI50 (OVCAR-5 ovarian) | GI50 (CCRF-CEM leukemia)
CCC(C)c1cccc(C)c1NC(=O)C(=O)Cc1nc2ccccc2s1 (stereo not drawn) | > 100 µM | > 100 µM | > 100 µM | > 100 µM | > 100 µM | > 100 µM | > 100 µM | > 100 µM | – | – | – | – | – | – | – | – | – | –
CCOC(=O)c1ccccc1SC(C[N+](=O)[O-])c1ccccc1 (stereo not drawn) | 24.7 µM | 3.74 µM | 12 µM | – | 4.97 µM | 25.3 µM | 36.2 µM | – | 12 µM | 5.32 µM | 42.6 µM | 1.91 µM | 2.99 µM | 8.97 µM | 3.23 µM | 2.23 µM | 12.3 µM | 4.64 µM
O=C(/C=C/c1ccccc1O)c1cccc2ccccc12 | > 66.4 µM | > 100 µM | > 100 µM | > 100 µM | > 100 µM | > 100 µM | 54 µM | > 100 µM | – | – | – | – | – | > 100 µM | – | – | – | –
Cc1ccc2nc3c(n2c1)C(=O)C(=O)c1ccccc1-3 | 0.419 µM | 0.343 µM | 0.326 µM | – | 1.15 µM | 0.391 µM | 3.37 µM | – | 0.176 µM | 0.389 µM | 1.74 µM | 0.189 µM | 0.264 µM | 3.33 µM | 0.164 µM | 0.527 µM | 0.202 µM | 0.429 µM
CCCCCCCCCCCCCCCC(=O)OCC1OC(OC)C(NC(=O)N(CCCl)N=O)C(O)C1O (stereo not drawn) | 27 µM | > 85.4 µM | 15.3 µM | 25.7 µM | 14.9 µM | > 74 µM | 53.7 µM | 25.2 µM | – | – | – | – | – | > 60.9 µM | – | – | – | –
Nc1c(C(=O)NC23CC4CC(CC(C4)C2)C3)[n+]([O-])c2ccccc2[n+]1[O-] | > 100 µM | > 100 µM | > 100 µM | > 100 µM | > 100 µM | > 100 µM | > 100 µM | > 100 µM | – | – | – | – | – | – | – | – | – | –
CC(C)C[CH2][Ge]([CH2]CC(C)C)([CH2]CC(C)C)[CH2]CC(C)C | > 100 µM | > 100 µM | > 100 µM | – | > 100 µM | > 100 µM | > 100 µM | – | > 100 µM | > 100 µM | > 100 µM | > 100 µM | > 100 µM | > 100 µM | > 100 µM | > 100 µM | > 100 µM | > 100 µM
CN1CCN(c2ccc3nc(-c4[nH]ncc4Nc4ncnc5c4OCCCN5)[nH]c3c2)CC1 | 0.123 µM | 0.104 µM | 0.0214 µM | – | 0.0944 µM | 0.163 µM | 1.36 µM | – | < 0.01 µM | 0.0129 µM | 0.155 µM | 0.0161 µM | < 0.01 µM | – | < 0.01 µM | < 0.0119 µM | 0.0121 µM | < 0.01 µM
O=C(Nc1ccc(Oc2ccc(NC(=O)Nc3ccc([N+](=O)[O-])cc3)cc2)cc1)Nc1ccc([N+](=O)[O-])cc1 | 12.5 µM | 43.2 µM | 20.6 µM | – | > 36.2 µM | > 100 µM | 3.22 µM | – | 2.16 µM | 0.944 µM | 6.74 µM | 3.28 µM | 1.35 µM | 4.87 µM | 3.07 µM | 3.15 µM | 3.59 µM | 0.61 µM
